Source: patent US4425352A, “Substituted phenoxyacetates of cyclic amines” (Agence Nationale de Valorisation de la Recherche, priority 1980, dated 1984)
Where “and” joins values, the source holds several entries; their conditions need not be identical. Identical values can stand only once.

Assays:
blood platelet clotting = assay: Effect against blood platelet clotting (pia-mater vessels); type: in vivo, rabbits; conditions: dose not stated
Protocol: All the products of the invention prepared according to Examples 1 and 2 at a dose of 10 mg/kg have an effect against plaquette aggregation which was observed on the pia-mater vessels of rabbits [M. M. G. BOZEIX 7th. Int. Congress of Pharmacology, Paris, July 1978].

genetically obese mice [1] = assay: Action on genetically obese mice; type: in vivo; set-up: Alimentary consumption: unit not given here; conditions: for Weight: in g
[2] = test system: mice intoxicated with aurothioglucose; assay: Protective effect against the action of aurothioglucose (hyperphagia, stomach weight, weight gain); type: in vivo; set-up: Decrease in the stomach weight with respect to the aurothioglucose reference: unit not given here; conditions: for Weight increase: 15 days after beginning, aurothioglucose alone 49%; for Action against hyperphagia and weight gain of mice intoxicated with aurothioglucose: given 1/2 hour before aurothioglucose 250 mg/kg
Protocol: Hunger and thirst regulation is dependent on stimulating secretions from the hypothalamus. These regulator centers may be disturbed either in acquired manner in genetically obese animals, either consequently to the destruction of the involved centers by selective poisons, such as aurothioglucose.
If 250 mg/kg of aurothioglucose are injected to mice, then the cells of the hypothalamic nuclei will degenerate and cause an hyperphagia syndrome in animals which is evidenced by:
a distension of the stomach,
a considerable increase in ponderal growing.
The mice were treated with one of the products of the invention 1/2 hour before the intraperitoneal injection of aurothioglucose (250 mg/kg).

rats = assay: Orientation test after an electroshock; type: in vivo
Description: This test consists in causing a loss of orientation and motive disorders in rats after repetition of 4 series of electroshock [M. Herold: Acta. Int. Meet. Psycho. Drug.

genetically obese mice [3] = assay: Action on genetically obese mice; type: in vivo; conditions: for Decrease in weight: obese mice, gastric ingestion, 18 days
Protocol: Finally, gastric ingestion during 18 days of 200 mg/kg of PM 170 causes, in obese mice, a steady decrease in weight of 8.3%, while in the same conditions there occurs, with Meclofenoxate, a decrease in weight of 2.2%.

fish chromatophores = assay: Action on the fish chromatophores (time of blackening); type: in vivo, Phoxinus Phoxinus Linne; conditions: at minimum effectual concentration
Protocol: The physiology of fish chromatophores is dependent on hypothalamic secretions of the lower portion of the diencephalon. The psychotropic and cerebral-orientation drugs can modify the physiology of these regions [J. Thuillier et al. C.R. Soc. […] This test is known to evidence the action of the products on the diencephalon which controls distension and blackening of fish chromatophores. […] The time for the fish blackening to occur was measured. The same test was effected with Meclofexonate.

mice = assay: Acute toxicity (LD 50) per os and intraveinous, Litchfield and Wilcoxon method; type: in vivo; conditions: for LD 50 I.V.: intraveinous; for LD 50 P.O.: per os
Protocol: The toxicities were calculated according to the LITCHFIELD and WILCOXON method (J. Pharm. and Exp. Therap. 1949, 96, p. 99, 113).
The products were administered per os and per intraveinous route to mice.

Diuretic action = type: in vivo
[4] = test system: mice rendered obese by aurothioglucose; assay: Curative action after development of obesity under the action of aurothioglucose; type: in vivo; conditions: for Decrease in weight/Aurothioglucose references: 18 days, per os; for Activity compared with Meclofenoxate at 200 mg/kg: in words
Protocol: Mice were rendered obese by intra-peritoneal injections of aurothioglucose (800 mg/kg).
After the development of obesity, a plateau was obtained in the weight curve. There was then selected an homogenous group of mice and treatment with PM 170 and Meclofenoxate was initiated. The results obtained were compared with a group of reference mice treated only with aurothioglucose (ATG controls).

cerebral oedema of rats = assay: Actions on cerebral oedema caused by triethyltin chloride; type: in vivo; conditions: 50 mg per kilogram
Protocol: The alkylated tin compounds are toxic and cause selective oedema of the central nervous system and in particular of the brain (Works of R. KATZMAN et al. Arch. Neurol. 9, 178, 1963). The water content of the cerebral tissue is increased. Similarly, the cerebral sodium content increases, while the potassium is reduced.
100 mg per kg of Meclofenoxate are required to provide the same result.

central nervous system = assay: Actions on the central nervous system (overall statement); type: in vivo; conditions: versus Meclofenoxate

SMILES | Weight increase [2] [%] | Decrease in weight (genetically obese mice [3]; 200 mg/kg) [%] | Time of occurrence of the blackening (fish chromatophores) [s] | LD 50 I.V. (mice) [mg] | LD 50 P.O. (mice) [mg] | Decrease in aliment consumption/ATG references ([4]; 50 mg/kg) | Decrease in weight/Aurothioglucose references ([4]; 50 mg/kg per day) | Decrease in aliment consumption/ATG references ([4]; 100 mg/kg) [%] | Decrease in weight/Aurothioglucose references ([4]; 100 mg/kg per day) [%] | Decrease in aliment consumption/ATG references ([4]; 200 mg/kg) | Decrease in weight/Aurothioglucose references ([4]; 200 mg/kg per day) [%] | Decrease in the stomach weight with respect to the aurothioglucose reference ([2]; 100 mg/kg P.O) | Action against hyperphagia and weight gain of mice intoxicated with aurothioglucose [2] | Effect on the build up of Na+ (cerebral oedema of rats) | Effect on the loss of K+ (cerebral oedema of rats) | Occurrence of the oedema caused by triethyltin chloride (cerebral oedema of rats) | further results
CN(C)CCOC(=O)COc1ccc(Cl)cc1 [Meclofenoxate, dimethylaminoethyl 4-chlorophenoxyacetate, reference compound] | 45 | 2.2 | 90 | 350 | 1750 | inactive | inactive | 26 | 10 | 23% and 22.9% | 5 | – | – | – | – | – | Effect against blood platelet clotting (blood platelet clotting): no effect against blood platelet clotting; Alimentary consumption (genetically obese mice [1]; treated normal females, 300 mg/kg, normal female controls 6.703 ± 0.597): 5.842 ± 0.842; Weight (genetically obese mice [1]; treated normal females, 300 mg/kg, normal female controls 25.3 ± 0.504): 24.8 ± 0.602; Alimentary consumption (genetically obese mice [1]; treated obese females, 300 mg/kg, obese female controls 6.347 ± 0.637): 5.542 ± 0.302; Weight (genetically obese mice [1]; treated obese females, 300 mg/kg, obese female controls 42.5 ± 0.787): 41.2 ± 0.802; Decrease in the stomach weight with respect to the aurothioglucose reference ([2]; 250 mg/kg P.O): 2.2495; Decrease in the stomach weight with respect to the aurothioglucose reference ([2]; 300 mg/kg P.O): 1.6129; minimal effective dose ([2]; Mus musculus, stomach weight, Table IV, read-out: Dosage at which (only) active): 250 mg/kg; Times less active than PM 170 ([2]; stomach weight, versus PM 170): 12.4 times; Activity to counteract obesity caused by aurothioglucose ([2]; versus PM 170, in words): less active than PM 170; Efficacy in orientation test after electroshock (rats; up to 200 mg/kg): absolutely inefficient; Diuretic action (Diuretic action; dose not stated): no effect against blood platelet clotting nor diuretic action
CCN1CCCC(OC(=O)COc2ccc(Cl)cc2)C1 (centres unmarked) [PM 168, N-ethyl-3-piperidine 4-chloro-phenoxyacetate] | – | – | 30 | 140 | 1800 | – | – | – | – | – | – | 2.5510 | counteract both hyperphagia and the weight gain | limit the build up of Na^+ | counteract the loss of K^+ | considerably reduce the occurrence of the oedema | Decrease in the stomach weight with respect to the aurothioglucose reference ([2]; 150 mg/kg P.O): 3.37
CN1CCCC(COC(=O)COc2ccc(Cl)cc2)C1 (centres unmarked) [PM 170, N-methyl-3-hydroxymethyl-piperidine (4-chloro-phenoxyacetate)] | 34 | 8.3 | 90 | 175 | 2300 | 10% | 5% | 33 | 12 | 36% | 14 | 4.2287 | counteract both hyperphagia and the weight gain | limit the build up of Na^+ | counteract the loss of K^+ | considerably reduce the occurrence of the oedema | Alimentary consumption (genetically obese mice [1]; treated normal males, 200 mg/kg, normal male controls 6.307 ± 0.746): 4.716 ± 0.880; Weight (genetically obese mice [1]; treated normal males, 200 mg/kg, normal male controls 25.34 ± 0.365): 22.22 ± 0.484; Alimentary consumption (genetically obese mice [1]; treated obese males, 200 mg/kg, obese male controls 6.786 ± 0.853): 4.384 ± 0.886; Decrease in the stomach weight with respect to the aurothioglucose reference ([2]; 20 mg/kg P.O): 3.2155; Decrease in the stomach weight with respect to the aurothioglucose reference ([2]; 50 mg/kg P.O): 2.8729; Activity against increase of the stomach weight distension ([2]; in words): very high activity; Efficacy in orientation test after electroshock (rats; 100 mg, first 2 series of electroshock): slightly effective; Activity on alimentary consumption and weight development (genetically obese mice [3]; genetically obese mice of 42-42.5 g, in words): active both on alimentary consumption and on weight development; Weight (genetically obese mice [3]; treated obese males, 200 mg/kg, obese male controls 43.3 ± 0.284, in g): 39.3 ± 0.882; Toxicity compared with Meclofenoxate / overall toxicity (mice; in words): less toxic than "Meclofenoxate"; Activity on the central nervous system relative to Meclofenoxate (central nervous system): from five to twelve times more active than Meclofenoxate; Diuretic action (Diuretic action; 100 mg/kg): slight diuretic action; Activity compared with Meclofenoxate at 200 mg/kg ([4]; 50 mg/kg): same activity at 50 mg/kg than Meclofenoxate at 200 mg/kg; Activity compared with Meclofenoxate at 200 mg/kg ([4]; 200 mg/kg): markedly higher than Meclofenoxate at 200 mg/kg
CN1CCCCC1COC(=O)COc1ccc(Cl)cc1 (centres unmarked) [PM 172, N-methyl-2-hydroxymethyl-piperidine 4-chloro-phenoxyacetate] | – | – | 60 | 160 | 1500 | – | – | – | – | – | – | 2.2727 | counteract both hyperphagia and the weight gain | limit the build up of Na^+ | counteract the loss of K^+ | considerably reduce the occurrence of the oedema | Decrease in the stomach weight with respect to the aurothioglucose reference ([2]; 60 mg/kg P.O): 2.6299
